Results reported in patent US20240032539A1, “CONCENTRATED FUNGICIDE COMPOSITION OF PROTHIOCONAZOLE AND PICOXYTROBIN” (priority 2020, published 2024).
Like-named read-outs stand apart in the source and are kept apart here.

Key:
[1] = cited from earlier work; for Log Know (P Log) / Know P: triazole fungicides, Table 01; for Know or P / Log Know or Log P: strobirulins, Table 2
[2] = cited from earlier work; for Classification (dissociation) / Dissociation Constant - Pka: triazole fungicides, Table 01; for ionization: strobirulins, Table 2
[3] = Eiq risk indicator of pesticides (Kovach et al.; Eiq Calculator); settings: for Total Eiq (% of picoxystrobin): as percentage of the picoxystrobin value
Description: With all this complexity, the question that arises is: is there any risk indicator for the use of pesticides that is accurate, simple to use and easily understandable? So far, the best available option is the Eiq proposed by Kovach et al. (1992).
This indicator is calculated from a total of […] characteristics of pesticides: dermal toxicity, chronic toxicity, systemicity, toxicity to fish, leaching potential, potential for movement on the soil surface, toxicity to birds, time to degrade 50% in soil, toxicity to bees, toxicity to beneficial arthropods and time to degrade 50% on plant surface.
The total Eiq is characteristic of each active ingredient and corresponds to the average of three other more specific coefficients calculated from subgroups of the aforementioned characteristics: Eiq Ecological, Eiq for the worker and Eiq for the consumer.
The Eiq values are dimensionless and can be determined for 1 kg of the active ingredient (to compare the safety of different compounds) or per hectare treated (considers the variable effective dose of use). There are applications that do the calculation automatically such as Eiq Calculator (Cornell—CALS, 2018).

[4] = cited from earlier work; for Solubility in water: triazole fungicides, Table 01; for Solubility-water: strobirulins, Table 2
[5] = cited from earlier work; for Consumer Eiq / Ecological Eiq / Total Eiq / Worker Eiq: for 1 kg of the compound; for Total Equi: per kg of compound, Table 2
[6] = tested on: complex of diseases in soybean; assay: LD50 of strobilurins, populations of different locations and dates of collection; settings: mean over locations and dates of collection
Description: Additional tests were conducted with populations with extreme values to verify the correlation of ED50 values with field efficiency and confirm this elevation in values. The same tests were installed in order to compare the most used strobilurins in soybean crops.
All estimated LD50 values were below 1 μg. mL−1, regardless of product, location and date of collection.
That said, it can be stated that the combination of triazole with greater intrinsic activity to strobilurin with the same characteristics makes OFA-T 0143/17 (prothioconazole+picoxystrobin) an excellent tool to assist in the integrated management of diseases in the soybean crop.

[7] = strobirulins, Table 2; cited from earlier work

For `Fc1ccc([C@]2(Cn3cncn3)O[C@H]2c2ccccc2Cl)cc1` (racemic) [epoxiconazole], the “Log Know (P Log)” value [1] is given as 3.3 and the “Classification (dissociation)” value [2] is given as “No dissociation”.

In the case of `OC(Cc1ccccc1Cl)(Cn1nc[nH]c1=S)C1(Cl)CC1` (racemic) [prothioconazole, (RS)-2-[2-(1-chlorocyclopropyl)-3-(2-chlorophenyl)-2-hydroxypropyl]-2,4-dihydro1,2,4-triazole-3-thione], the “Consumer Eiq” value ([3]; dose of 96 g a.i./ha) is reported as 1.008, the “Ecological Eiq” value ([3]; dose of 96 g a.i./ha) is reported as 5.33 and the “Total Eiq” value ([3]; dose of 96 g a.i./ha) is reported as 2.58. For the same compound, the “Worker Eiq” value ([3]; dose of 96 g a.i./ha) was 1.33, the “Know P” value [1] was 100 and the “Log Know (P Log)” value [1] was 2. The Solubility in water [4] was 22.5 mg/L or PPM, the “Classification (dissociation)” value [2] was “Weak acid” and the “Dissociation Constant - Pka” value [2] was 6.9. For the same compound, the “Consumer Eiq” value [5] was 10.5, the “Ecological Eiq” value [5] was 55.5 and the “Total Eiq” value [5] was 26.9. The “Worker Eiq” value [5] was 13.9.

In the case of `Clc1ccc(C2(Cn3cncn3)OCCO2)c(Cl)c1` [azaconazole], the “Know P” value [1] is given as 229.1, the “Log Know (P Log)” value [1] is given as 2.36 and the Solubility in water [4] is given as 300 mg/L or PPM. For the same compound, the “Classification (dissociation)” value [2] was “Very weak base” and the “Dissociation Constant - Pka” value [2] was 3.

For `CO/C=C(/C(=O)OC)c1ccccc1Oc1cc(Oc2ccccc2C#N)ncn1` [azoxystrobin], the “Total Eiq (% of picoxystrobin)” value ([3]; Units/Kg) was 196.6%, the “Total Eiq (% of picoxystrobin)” value ([3]; Units/Mol) was 215.7% and the “Total Eiq” value ([3]; per Mol of compound, Table 2) was 9.3 Units/Mol. For the same compound, the LD50 mean [6] was 0.23 µg/mL, the “Know or P” value [1] was 316 dimensionless and the “Log Know or Log P” value [1] was 2.5 dimensionless. For the same compound, the Solubility-water [4] was 6.7 mg/L or PPM, the ionization [2] was “Non-ionizable” and the RL50 in plants [7] was 7.0 days. The “Total Equi” value [5] was 23.0 Units/Kg.

In the case of `Clc1ccc(C2(Cn3cncn3)CC(Br)CO2)c(Cl)c1` (stereo not drawn) [bromuconazole], the “Log Know (P Log)” value [1] is given as 3.24, the Solubility in water [4] is given as 48.3 mg/L or PPM and the “Classification (dissociation)” value [2] is given as “Strong acid”. For the same compound, the “Dissociation Constant - Pka” value [2] was 2.75.

For `CC(C1CC1)C(O)(Cn1cncn1)c1ccc(Cl)cc1` (stereo not drawn) [cyproconazole], the “Log Know (P Log)” value [1] is listed as 3.09 and the “Classification (dissociation)” value [2] is listed as “No dissociation”.

In the case of `CC1COC(Cn2cncn2)(c2ccc(Oc3ccc(Cl)cc3)cc2Cl)O1` (stereo not drawn) [diphenococonazole], the “Log Know (P Log)” value [1] is given as 4.36, the “Classification (dissociation)” value [2] is given as “Strong acid” and the “Dissociation Constant - Pka” value [2] is given as 1.07.

In the case of `N#CC(CCc1ccc(Cl)cc1)(Cn1cncn1)c1ccccc1` (stereo not drawn) [fenbuconazole], the “Log Know (P Log)” value [1] is given as 3.79, the Solubility in water [4] is given as 2.47 mg/L or PPM and the “Classification (dissociation)” value [2] is given as “No dissociation”.

In the case of `O=c1c2cc(F)ccc2nc(-n2cncn2)n1-c1ccc(Cl)cc1Cl` [fluquinconazole], the “Log Know (P Log)” value [1] is given as 3.24, the “Classification (dissociation)” value [2] is given as “Strong acid” and the “Dissociation Constant - Pka” value [2] is given as 0.9.

In the case of `CCCCC(O)(Cn1cncn1)c1ccc(Cl)cc1Cl` (stereo not drawn) [hexaconazole], the “Log Know (P Log)” value [1] is listed as 3.9 and the “Classification (dissociation)” value [2] is listed as “Strong acid”.

For `CC1(C)CCC(Cc2ccc(Cl)cc2)C1(O)Cn1cncn1` (stereo not drawn) [metconazole], the “Log Know (P Log)” value [1] is listed as 3.85 and the “Classification (dissociation)” value [2] is listed as “Very weak acid”.

In the case of `CCCC(Cn1cncn1)c1ccc(Cl)cc1Cl` (stereo not drawn) [penconazole], the “Classification (dissociation)” value [2] is listed as “Very weak base” and the “Dissociation Constant - Pka” value [2] is listed as 1.51.

In the case of `CO/C=C(/C(=O)OC)c1ccccc1COc1cccc(C(F)(F)F)n1` [picoxystrobin, (E)-3-methoxy-2-{2-[6-(trifluoromethyl)-2-pyridyloxymethyl]phenyl}methyl acrylate], the “Total Eiq (% of picoxystrobin)” value ([3]; Units/Kg) is reported as 100.0%, the “Total Eiq (% of picoxystrobin)” value ([3]; Units/Mol) is reported as 100.0% and the “Consumer Eiq” value ([3]; dose of 80g a.i./ha) is reported as 0.408. The “Ecological Eiq” value ([3]; dose of 80g a.i./ha) was 2.00, the “Total Eiq” value ([3]; dose of 80g a.i./ha) was 0.936 and the “Worker Eiq” value ([3]; dose of 80g a.i./ha) was 0.408. For the same compound, the “Total Eiq” value ([3]; per Mol of compound, Table 2) was 4.3 Units/Mol, the “average reduction of risks for consumers, workers and the environment versus azoxystrobin” value ([3]; per kg) was 49.13% and the “average reduction of risks for consumers, workers and the environment versus pyraclostrobin” value ([3]; per kg) was 49.35%. For the same compound, the “average reduction of risks for consumers, workers and the environment versus trifloxystrobin” value ([3]; per kg) was 54.12%, the “total Eiq value expressed as a percentage of the value observed for azoxystrobin” value ([3]; per kg) was 50.87% and the “total Eiq value expressed as a percentage of the value observed for pyraclostrobin” value ([3]; per kg) was 50.65%. For the same compound, the “total Eiq value expressed as a percentage of the value observed for trifloxystrobin” value ([3]; per kg) was 45.88%, the LD50 mean [6] was 0.18 µg/mL and the “Know or P” value [1] was 3981 dimensionless. The “Log Know or Log P” value [1] was 3.6 dimensionless, the Solubility-water [4] was 3.1 mg/L or PPM and the ionization [2] was “Non-ionizable”. For the same compound, the RL50 in plants [7] was 6.9 days, the “Consumer Eiq” value [5] was 5.1 and the “Ecological Eiq” value [5] was 25.0. The “Total Eiq” value [5] was 11.7, the “Worker Eiq” value [5] was 5.1 and the “Total Equi” value [5] was 11.7 Units/Kg.

In the case of `CCCC1COC(Cn2cncn2)(c2ccc(Cl)cc2Cl)O1` (stereo not drawn) [propiconazole], the “Log Know (P Log)” value [1] is given as 3.72, the Solubility in water [4] is given as 150 mg/L or PPM and the “Classification (dissociation)” value [2] is given as “Very weak base”. For the same compound, the “Dissociation Constant - Pka” value [2] was 1.09.

With `COC(=O)N(OC)c1ccccc1COc1ccn(-c2ccc(Cl)cc2)n1` [pyraclostrobin] the “Total Eiq (% of picoxystrobin)” value ([3]; Units/Kg) was 197.4%, the “Total Eiq (% of picoxystrobin)” value ([3]; Units/Mol) was 208.5% and the “Total Eiq” value ([3]; per Mol of compound, Table 2) was 9.0 Units/Mol. For the same compound, the LD50 mean [6] was 0.21 µg/mL, the “Know or P” value [1] was 9772 dimensionless and the Solubility-water [4] was 1.5 mg/L or PPM. The ionization [2] was “Non-ionizable”, the RL50 in plants [7] was 4.7 days and the “Total Equi” value [5] was 23.1 Units/Kg.

In the case of `CC(C)(C)C(O)(CCc1ccc(Cl)cc1)Cn1cncn1` (stereo not drawn) [tebuconazole], the “Log Know (P Log)” value [1] is listed as 3.7 and the “Classification (dissociation)” value [2] is listed as “Weak acid”.

In the case of `FC(F)C(F)(F)OCC(Cn1cncn1)c1ccc(Cl)cc1Cl` (stereo not drawn) [tetraconazole], the “Log Know (P Log)” value [1] is listed as 3.56 and the “Classification (dissociation)” value [2] is listed as “Strong acid”.

In the case of `CON=C(C(=O)OC)c1ccccc1CON=C(C)c1cccc(C(F)(F)F)c1` [trifloxystrobin], the “Total Equi” value [3] is given as 10.4 Units/Mol, the “more Eiq units required so that 10 g of the compound remained in the plant matrix, versus picoxystrobin” value ([3]; 14 days) is given as 35.54% and the “Know or P” value [1] is given as 31623 dimensionless. For the same compound, the ionization [2] was “Non-ionizable”.

In the case of `CC1(C)CCC(=Cc2ccc(Cl)cc2)C1(O)Cn1cncn1` (stereo not drawn) [triticonazole], the “Log Know (P Log)” value [1] is given as 3.29 and the “Classification (dissociation)” value [2] is given as “No dissociation”.

For `CC(C)(C)C(O)/C(=C\c1ccc(Cl)cc1)n1cncn1` (stereo not drawn) [uniconazole], the “Log Know (P Log)” value [1] is given as 3.84, the Solubility in water [4] is given as 8.41 mg/L or PPM and the “Classification (dissociation)” value [2] is given as “Very weak acid”. The “Dissociation Constant - Pka” value [2] was 13.07.
